ChEMBL document CHEMBL1795284, “Total synthesis of racemic and (R) and (S)-4-methoxyalkanoic acids and their antifungal activity” (2011)
≈ marks a conversion by molar mass, not a printed value.

Experiments:
Assay type in all cases: functional
Pichia kudriavzevii = test: Antifungal activity against Issatchenkia orientalis MTCC 3020 after 18 hrs by microtiter broth dilution method; details: MTCC 3020, 18 h
Aspergillus niger = test: Antifungal activity against Aspergillus niger MTCC 281 after 18 hrs by microtiter broth dilution method; details: MTCC 281, 18 h
Candida albicans [1] = test: Antifungal activity against Candida albicans MTCC 4748 after 18 hrs by microtiter broth dilution method; details: MTCC 4748, 18 h
Candida albicans [2] = test: Antifungal activity against Candida albicans MTCC 3017 after 18 hrs by microtiter broth dilution method; details: MTCC 3017, 18 h
Candida parapsilosis = test: Antifungal activity against Candida parapsilosis MTCC 1744 after 18 hrs by microtiter broth dilution method; details: Lodderomyces parapsilosis, MTCC 1744, 18 h
Candida albicans [3] = test: Antifungal activity against Candida albicans MTCC 227 after 18 hrs by microtiter broth dilution method; details: MTCC 227, 18 h

Row | SMILES | MIC (Pichia kudriavzevii) | MIC (Aspergillus niger) | MIC (Candida albicans [1]) | MIC (Candida albicans [2]) | MIC (Candida parapsilosis) | MIC (Candida albicans [3])
1 | CCCCCC[C@H](CCC(=O)O)OC | 19 µg/mL (≈ 93.9 µM) | 19 µg/mL (≈ 93.9 µM) | 19 µg/mL (≈ 93.9 µM) | 312 µg/mL (≈ 1540 µM) | 625 µg/mL (≈ 3090 µM) | 19 µg/mL (≈ 93.9 µM)
2 | CCCCCC[C@@H](CCC(=O)O)OC | 312 µg/mL (≈ 1540 µM) | 1240 µg/mL (≈ 6120 µM) | 39 µg/mL (≈ 193 µM) | 156 µg/mL (≈ 771 µM) | 156 µg/mL (≈ 771 µM) | 1250 µg/mL (≈ 6180 µM)
3 | CCCCCCC[C@H](CCC(=O)O)OC | 312 µg/mL (≈ 1440 µM) | 168 µg/mL (≈ 777 µM) | 78 µg/mL (≈ 361 µM) | 1250 µg/mL (≈ 5780 µM) | – | 156 µg/mL (≈ 721 µM)
4 | CCCCCCC[C@@H](CCC(=O)O)OC | 2500 µg/mL (≈ 11600 µM) | 82 µg/mL (≈ 379 µM) | 156 µg/mL (≈ 721 µM) | 1250 µg/mL (≈ 5780 µM) | 2500 µg/mL (≈ 11600 µM) | 78 µg/mL (≈ 361 µM)
5 | CCCCCCC(CCC(=O)O)OC (racemic) | 1250 µg/mL (≈ 6180 µM) | 631 µg/mL (≈ 3120 µM) | 156 µg/mL (≈ 771 µM) | 5010 µg/mL (≈ 24800 µM) | 5010 µg/mL (≈ 24800 µM) | 625 µg/mL (≈ 3090 µM)
6 | CCCCCCCC(CCC(=O)O)OC (racemic) | 312 µg/mL (≈ 1440 µM) | 164 µg/mL (≈ 758 µM) | 19 µg/mL (≈ 87.8 µM) | 78 µg/mL (≈ 361 µM) | 625 µg/mL (≈ 2890 µM) | 156 µg/mL (≈ 721 µM)
7 | OC(Cn1cncn1)(Cn1cncn1)c1ccc(F)cc1F [FLUCONAZOLE] | 128 µg/mL (≈ 418 µM) | 34 µg/mL (≈ 111 µM) | 32 µg/mL (≈ 104 µM) | 64 µg/mL (≈ 209 µM) | 16 µg/mL (≈ 52.2 µM) | 32 µg/mL (≈ 104 µM)
